Measurements published in article PMC7585386 (ACS chemical biology, 2020).

Biological target: calcium-dependent protein kinase 1 (CDPK1, CDPK1^G; TGGT1_301440) (Toxoplasma gondii, UniProt Q9BJF5)
Experiment: kinase assay with recombinant purified enzyme in excess calcium
Format: biochemical

Cc1cccc(Cc2nn(C(C)(C)C)c3ncnc(N)c23)c1 [3-MB, 3-MB-PP1]
IC50: 79 nM
